Data published in patent US8618163B2, “Derivatives of cycloalkyl- and cycloalkenyl-1,2-dicarboxylic acid compounds having formyl peptide receptor like-1 (FPRL-1) agonist or antagonist activity” (Allergan, Inc., priority 2010, dated 2013).
Read-outs that look alike come from different tables or passages of the source.

What was measured:
FPR1 = molecular target: T1, FPR1 (Homo sapiens, UniProt P21462); assay: compound-induced calcium activity on FLIPR Tetra in HEK-Gqi5 cells stable expressing FPR1; format: cell-based; parameters: FPR1 (rel. eff.): scale not given here; settings: for FPR1 (rel. eff.): relative efficacy
T1 construct: expressed in transfected cells; host or cells: HEK-Gqi5 (HEK cells with chimeric G protein Gqi5)
T1 sequence (P21462 1-350): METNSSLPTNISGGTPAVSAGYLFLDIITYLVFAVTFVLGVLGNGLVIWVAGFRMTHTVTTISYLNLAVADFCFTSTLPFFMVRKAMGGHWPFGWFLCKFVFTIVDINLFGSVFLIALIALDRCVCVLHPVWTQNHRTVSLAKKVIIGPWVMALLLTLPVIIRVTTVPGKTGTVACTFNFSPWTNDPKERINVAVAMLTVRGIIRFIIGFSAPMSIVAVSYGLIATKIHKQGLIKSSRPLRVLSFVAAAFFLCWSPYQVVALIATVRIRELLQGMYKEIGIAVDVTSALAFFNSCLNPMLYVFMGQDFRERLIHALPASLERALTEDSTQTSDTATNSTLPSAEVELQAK
Description: (§1) CHO-Gal6 cells stably expressing FPRL1 were cultured in (F12, 10% FBS, 1% PSA, 400 μg/ml geneticin and 50 μg/ml hygromycin) and HEK-Gqi5 cells stable expressing FPR1 were cultured in (DMEM high glucose, 10% FBS, 1% PSA, 400 μg/ml geneticin and 50 μg/ml hygromycin). In general, the day before the experiment, 18,000 cells/well were plated in a 384-well clear bottom poly-d-lysine coated plate. The following day the screening compound-induced calcium activity was assayed on the FLIPR^Tetra. The drug plates were prepared in 384-well microplates using the EP3 and the MultiPROBE robotic liquid handling systems. Compounds were tested at concentrations ranging from 0.61 to 10,000 nM. Results are expressed as EC50 (nM) and efficacy values.

FPRL1 = molecular target: T2, FPRL1 (Homo sapiens, UniProt P25090); assay: compound-induced calcium activity on FLIPR Tetra in CHO-Gal6 cells stably expressing FPRL1; format: cell-based; settings: for FPRL1 (rel. eff.): relative efficacy
T2 construct: expressed in transfected cells; host or cells: CHO-Gal6 (CHO cells with G alpha 16)
T2 sequence (P25090 1-351): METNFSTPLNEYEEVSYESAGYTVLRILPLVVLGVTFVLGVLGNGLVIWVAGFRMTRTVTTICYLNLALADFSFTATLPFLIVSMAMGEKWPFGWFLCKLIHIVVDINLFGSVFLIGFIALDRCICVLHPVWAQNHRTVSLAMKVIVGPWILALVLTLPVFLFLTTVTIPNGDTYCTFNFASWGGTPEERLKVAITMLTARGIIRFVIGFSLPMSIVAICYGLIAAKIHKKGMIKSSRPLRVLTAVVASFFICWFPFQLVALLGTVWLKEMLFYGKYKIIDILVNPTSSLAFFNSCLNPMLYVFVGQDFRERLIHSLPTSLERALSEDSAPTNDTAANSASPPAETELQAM
Description: as §1

[1] = class symbol NA, read-out: FPR1 EC50 (NA = Not Active)
[2] = calcium, FLIPR Tetra, tested 0.61 to 10,000 nM, read-out: FPRL1 EC50
[3] = class symbol NA, read-out: FPRL1 EC50 (NA = Not Active)
[4] = cells printed in μM, read-out: FPR1 EC50
[5] = calcium, FLIPR Tetra, tested 0.61 to 10,000 nM, read-out: FPR1 EC50

EC50 (FPR1; [1]) [µM] | EC50 (FPRL1; [2]) [µM] | FPRL1 (rel. eff.) (FPRL1; calcium, FLIPR Tetra) | EC50 (FPRL1; [3]) [µM] | EC50 (FPRL1; in μM, read-out: FPRL1 EC50) [µM] | EC50 (FPR1; [4]) [µM] | FPR1 (rel. eff.) (FPR1; calcium, FLIPR Tetra) | EC50 (FPR1; [5]) [µM] | Molecule
> 10 | 0.277 | 0.96 | – | – | – | – | – | CC(=O)c1ccc(NC(=O)C2C(C(=O)O)C3C=CC2C32CC2)cc1 (racemic) [Compound 32, (+/−)-(1R,4S,5R,6S)-5-((4-Acetylphenyl)carbamoyl)spiro[bicyclo[2.2.1]hept[2]ene-7,1′-cyclopropane]-6-carboxylic Acid]
> 10 | – | – | > 10 | – | – | – | – | CC(=O)Nc1ccc(NC(=O)[C@H]2[C@@H](C(=O)O)[C@H]3CC[C@@H]2C32CC2)cc1 (racemic) [Compound 75, (+/−)-(1S,2R,3S,4R)-2-((4-Acetamidophenyl)carbamoyl)spiro[bicyclo[2.2.1]-heptan-7,1′-cyclopropane]-3-carboxylic Acid]
> 10 | 0.0559 | 0.97 | – | – | – | – | – | (+/−)-(1S,2R,3S,4R)—N^2-(4-Bromophenyl)-N^3-methoxyspiro[bicyclo[2.2.1]heptane-7,1′-cyclopropane]-2,3-dicarboxamide [Compound 80]
> 10 | – | – | > 10 | – | – | – | – | CC(C)(C)c1ccc(NC(=O)C2C(C(=O)O)C3C=CC2C32CC2)cc1 (racemic) [Compound 5, (+/−)-(1R,4S,5R,6S)-5-(4-tert-Butylphenylcarbamoyl)spiro[bicyclo[2.2.1]hept[2]ene-7,1′-cyclopropane]-6-carboxylic Acid]
> 10 | 2.11 | 1.0 | – | – | – | – | – | CC(C)OC(=O)[C@@H]1[C@H](C(=O)Nc2ccc(Br)cc2)[C@@H]2CC[C@H]1C21CC1 (racemic) [Compound 86, (+/−)-(1S,2R,3S,4R)-Isopropyl 2-((4-bromophenyl)carbamoyl)spiro[bicyclo[2.2.1]heptane-7,1′-cyclopropane]-3-carboxylate]
> 10 | 2.83 | 0.49 | – | – | – | – | – | O=C(Nc1ccccc1)[C@H]1[C@@H](C=NO)[C@H]2CC[C@@H]1C21CC1 (racemic) [Compound 94, (+/−)-(1S,2R,3S,4R)-3-((Hydroxyimino)methyl)-N-phenylspiro[bicyclo[2.2.1]heptane-7,1′-cyclopropane]-2-carboxamide]
> 10 | 0.0097 | 0.95 | – | – | – | – | – | CNC(=O)[C@@H]1[C@H](C(=O)Nc2ccc(Br)cc2)[C@@H]2CC[C@H]1C21CC1 (racemic) [Compound 77, (+/−)-(1S,2R,3S,4R)—N^2-(4-Bromophenyl)-N^3-methylspiro[bicyclo[2.2.1]heptane-7,1′-cyclopropane]-2,3-dicarboxamide]
> 10 | – | 0.82 | – | – | – | – | – | CC1(C)C2CCC1C(C(=O)Nc1ccc(I)cc1)C2C(N)=O (racemic) [Compound 61, (+/−)-(1S,2R,3S,4R)—N^2-(4-Iodophenyl)-7,7-dimethylbicyclo[2.2.1]heptanes-2,3-dicarboxamide]
> 10 | – | 0.76 | – | > 10 | – | – | – | O=C(Nc1ccc(Br)cc1)[C@H]1[C@@H](CO)[C@H]2CC[C@@H]1C21CC1 (racemic) [Compound 59, (+/−)-(1S,2R,3S,4R)—N-(4-Bromophenyl)-3-(hydroxymethyl)spiro[bicyclo[2.2.1]-heptane-7,1′-cyclopropane]-2-carboxamide]
– | < 0.001 | 0.91 | – | – | > 40 | 0.30 | – | NC(=O)C1C(C(=O)Nc2ccc(Br)cc2)C2CCC1C21CC1 (racemic) [Compound 46B]
> 10 | 2.12 | 0.67 | – | – | – | – | – | Cc1cc(Br)cc(C)c1NC(=O)[C@@H]1[C@H](C(=O)O)[C@@H]2CC[C@H]1C21CC1 (racemic) [Compound 73, (+/−)-(1R,2S,3R,4S)-2-((4-Bromo-2,6-dimethylphenyl)carbamoyl)spiro[bicyclo[2.2.1]-heptane-7,1′-cyclopropane]-3-carboxylic Acid]
– | 0.164 | 0.89 | – | – | – | – | 8.3 | CC(C)=C1C2CCC1C(C(=O)Nc1ccc(Br)cc1)C2C(=O)O (racemic) [Compound 24, (+/−)-(1S,2R,3S,4S)-3-(4-Bromophenylcarbamoyl)[bicyclo[2.2.1]heptane-7-propan-2-ylidene]-2-carboxylic Acid]

The next lines start with the molecule.

Molecule | EC50 (FPR1; [1]) [µM] | EC50 (FPRL1; [2]) [µM] | FPRL1 (rel. eff.) (FPRL1; calcium, FLIPR Tetra) | EC50 (FPRL1; [3]) [µM] | EC50 (FPRL1; in μM, read-out: FPRL1 EC50) [µM] | EC50 (FPR1; [4]) [µM] | FPR1 (rel. eff.) (FPR1; calcium, FLIPR Tetra) | EC50 (FPR1; [5]) [µM]
O=C(O)C1C(C(=O)Nc2ccccc2)C2C=CC1C21CC1 (racemic) [Compound 7, (+/−)-(1S,4R,5S,6R)-6-(Phenylcarbamoyl)spiro[bicycle[2.2.1]hept[2]ene-7,1′cyclopropane]-5-carboxylic Acid] | > 10 | – | ND (0.33) | – | – | – | – | –
CSc1ccc(NC(=O)C2C(C(N)=O)C3C=CC2C32CC2)cc1 (racemic) [Compound 63, (+/−)-(1R,4S,5R,6S)—N^5-(4-(Methylthio)phenyl)spiro[bicyclo[2.2.1]hept[2]ene-7,1′-cyclopropane]-5,6-dicarboxamide] | > 10 | 0.0966 | 0.9 | – | – | – | – | –
O=C(O)C1C(C(=O)Nc2ccc(O)cc2)C2C=CC1C21CC1 (racemic) [Compound 33, (+/−)-(1S,4R,5S,6R)-6-((4-Hydroxyphenyl)carbamoyl)spiro[bicyclo[2.2.1]hept[2]ene-7,1′-cyclopropane]-5-carboxylic Acid] | > 10 | – | – | > 10 | – | – | – | –
CC(=O)c1ccc(NC(=O)[C@H]2[C@@H](C(=O)O)[C@H]3CC[C@@H]2C32CC2)cc1 (racemic) [Compound 43, (+/−)-(1S,2R,3S,4R)-2-((4-Acetylphenyl)carbamoyl)spiro[bicyclo[2.2.1]heptane-7,1′-cyclopropane]-3-carboxylic Acid] | – | 0.049 | 0.71 | – | – | > 10 | 0.50 | –
O=C(O)C1=C(C(=O)Nc2ccc(Br)cc2)C2CCC1CC2 [Compound 60, (1s,4s)-3-((4-Bromophenyl)carbamoyl)bicyclo[2.2.2]oct-2-ene-2-carboxylic Acid] | > 10 | 0.143 | 1.0 | – | – | – | – | –
O=C(O)C1=C(C(=O)Nc2ccc(Br)cc2)C2C=CC1C21CC1 (racemic) [Compound 72, (+/−)-(1R,4S)-2-((4-Bromophenyl)carbamoyl)spiro[bicyclo[2.2.1]-hepta[2,5]diene-7,1′-cyclopropane]-3-carboxylic Acid] | > 10 | 0.617 | 0.92 | – | – | – | – | –
O=C(O)C1C(C(=O)Nc2ccc(Br)cc2)C2CCC1C21CC1 (single isomer, unassigned) [Compound 10B] | – | < 0.001 | 0.98 | – | – | – | 0.76 | 2.17
NC(=O)C1C(C(=O)Nc2ccc(Br)cc2)C2CCC1C21CC1 (racemic) [Compound 46A] | > 10 | 6.52 | 0.85 | – | – | – | – | –
CC(C)=C1[C@H]2C=C[C@@H]1[C@@H](C(=O)O)[C@H]2C(=O)Nc1ccc(Br)cc1 (racemic) [Compound 21, (+/−)-(1S,4R,5R,6S)-6-(4-Bromophenylcarbamoyl)[bicyclo[2.2.1]hept[2]ene-7-propan-2-ylidene]-5-carboxylic Acid] | – | 0.461 | 0.77 | – | – | – | 50 | –
NS(=O)(=O)c1ccc(NC(=O)C2C(C(=O)O)C3C=CC2C32CC2)cc1 (racemic) [Compound 8, (+/−)-(1S,4R,5S,6R)-6-(4-Sulfamoylphenylcarbamoyl)spiro[bicyclo[2.2.1]hept[2]ene-7,1′-cyclopropane]-5-carboxylic Acid] | > 10 | 2.71 | 0.51 | – | – | – | – | –
O=C(Nc1ccc(Br)cc1)C1C(CO)C2C=CC1C21CC1 (racemic) [Compound 58, (+/−)-(1R,4S,5R,6S)—N-(4-Bromophenyl)-6-(hydroxymethyl)spiro[bicyclo[2.2.1]-hept[2]ene-7,1′-cyclopropane]-5-carboxamide] | > 10 | 0.229 | 0.91 | – | – | – | – | –
O=C(Nc1ccc(Br)cc1)[C@H]1[C@@H](C=NO)[C@H]2CC[C@@H]1C21CC1 (racemic) [Compound 92, (+/−)-(1S,2R,3S,4R)—N-(4-Bromophenyl)-3-((hydroxyimino)methyl)spiro[bicyclo[2.2.1]heptane-7,1′-cyclopropane]-2-carboxamide] | > 10 | 4.38 | 0.5 | – | – | – | – | –
